Assays:
Type in all cases: cell-based, mouse
[1] = tested on: neural progenitor cells (NPCs); test: Neurogenesis from NPCs co-cultured with microglia pre-activated by aggregated Aβ and cytokines; details: 10 days; Aβ 5 μM 48 h, cytokines 10 ng/ml
Description: (xx) Reagents. Recombinant mouse IFN-γ and IL-4 (both containing endotoxin at a concentration below 0.1 ng/μg cytokine) were obtained from R&D Systems (Minneapolis, Minn.). β-amyloid peptides [amyloid protein fragment 1-40 and 1-42 (Aβ1-40/1-42)] were purchased from Sigma-Aldrich, St. Louis, Mo. The Aβ peptides were dissolved in endotoxin-free water, and Aβ aggregates were formed by incubation of Aβ, as described (Ishii et al., 2000). (xxv) Neural progenitor cell culture. Coronal sections (2 mm thick) of tissue containing the subventricular zone of the lateral ventricle were obtained from the brains of adult C57B1/6J mice. […] After centrifugation at 110×g for 15 min at room temperature, the tissue was mechanically dissociated by pipette trituration. Cells obtained from single-cell suspensions were plated (3500 cells/cm^2) in 75-cm^2 Falcon tissue-culture flasks (BD Biosciences, San Diego, Calif.), in NPC-culturing medium [Dulbecco's modified Eagles's medium (DMEM)/F12 medium (Gibco/Invitrogen, Carlsbad, Calif.) containing 2 mM L-glutamine, 0.6% glucose, 9.6 μg/ml putrescine, 6.3 ng/ml progesterone, 5.2 ng/ml sodium selenite, 0.02 mg/ml insulin, 0.1 mg/ml transferrin, 2 μg/ml heparin (all from Sigma-Aldrich, Rehovot, Israel), fibroblast growth factor-2 (human recombinant, 20 ng/ml), and epidermal growth factor (human recombinant, 20 ng/ml; both from Peprotech, Rocky Hill, N.J.)]. Spheres were passaged every 4-6 days and replated as single cells. Green fluorescent protein (GFP)-expressing NPCs were obtained as previously described (Pluchino et al., 2003). (xxvi) Primary microglial culture. Brains from neonatal (P0-P1) C57B1/6J mice were stripped of their meninges and minced with scissors under a dissecting microscope (Zeiss, Stemi DV4, Germany) in Leibovitz-15 medium (Biological Industries, Kibbutz Beit Ha-Emek, Israel). […] The cell suspension was washed in culture medium for glial cells [DMEM supplemented with 10% fetal calf serum (FCS; Sigma-Aldrich, Rehovot), L-glutamine (1 mM), sodium pyruvate (1 mM), penicillin (100 U/ml), and streptomycin ([…])] and cultured at 37° C./5% CO2 in 75-cm^2 Falcon tissue-culture flasks (BD Biosciences) coated with poly-D-lysine (PDL) (10 mg/ml; Sigma-Aldrich, Rehovot) in borate buffer (2.37 g borax and 1.55 g boric acid dissolved in 500 ml sterile water, pH 8.4) for 1 h, then rinsed thoroughly with sterile, glass-distilled water. Half of the medium was changed after 6 h in culture and every 2nd day thereafter, starting on day 2, for a total culture time of 10-14 days. […]

aNPCs = test: Neuronal differentiation of aNPCs with CD4+ T cells, T cell-conditioned medium or cytokines; details: 5 days in culture with cytokine, concentrations as low as 1 ng/ml
Description: (xvii) Co-culturing of neural progenitor cells and T cells. CD4+ T cells were purified from lymph nodes of 8-week-old C57B16/J mice as previously described (Kipnis et al., 2004). T cells were activated in RPMI medium supplemented with L-glutamine (2 mM), 2-mercaptoethanol (5×10^−5 M), sodium pyruvate (1 mM), penicillin (100 IU/ml), streptomycin (100 μg/ml), nonessential amino acids (1 ml/100 ml), and autologous serum 2% (v/v) in the presence of mouse recombinant IL-2 (mrIL-2; 5 ng/ml) and soluble anti-CD28 and anti-CD3. antibodies (1 ng/ml). T cells were co-cultured (5×10^4 cells/well) with aNPCs (5×10^4 cells/well) for 5 d on cover slips coated with Matrigel (BD Biosciences) in 24-well plates. The cultures were then fixed with 2.5% paraformaldehyde in PBS for 30 min at room temperature and stained for neuronal markers.
We therefore sought to determine whether direct interaction between aNPCs and T cells would also result in an altered pattern of aNPC differentiation. To address this question, we activated CD4+ T cells in vitro by a cognate protocol (with anti-CD3 antibodies, anti-CD28 antibodies, and IL-2) for 24 h and then allowed their activation to continue in co-cultures with aNPCs in a transwell culture system. […] After 5 days in culture the aNPCs in the lower chamber were fixed and analyzed for the appearance of newly formed neurons. […]

[2] = tested on: neural progenitor cells (NPCs); test: Oligodendrocyte differentiation (NG2, RIP, GalC) of NPCs co-cultured with activated microglia; details: agent added to NPCs co-cultured with MG(IFN-γ)
Description: (iii) Neural progenitor cell (NPC) culture. Coronal sections (2 mm thick) of tissue containing the subventricular zone of the lateral ventricle were obtained from the brains of adult C57B16/J mice. The tissue was minced and then incubated for digestion at 37° C., 5% CO2 for 45 min in Earle's balanced salt solution containing 0.94 mg/ml papain (Worthington, Lakewood, N.J.) and 0.18 mg/ml of L-cysteine and EDTA. After centrifugation at 110×g for 15 min at room temperature, the tissue was mechanically dissociated by pipette trituration. Cells obtained from single-cell suspensions were plated (3500 cells/cm^2) in 75-cm^2 Falcon tissue-culture flasks (BD Biosciences, Franklin Lakes, N.J.), in NPC-culturing medium [Dulbecco's modified Eagles's medium (DMEM)/F12 medium (Gibco/Invitrogen, Carlsbad, Calif.) containing 2 mM L-glutamine, 0.6% glucose, 9.6 μg/ml putrescine, 6.3 ng/ml progesterone, 5.2 ng/ml sodium selenite, 0.02 mg/ml insulin, 0.1 mg/ml transferrin, 2 μg/ml heparin (all from Sigma-Aldrich, Rehovot, Israel), fibroblast growth factor-2 (human recombinant, 20 ng/ml), and epidermal growth factor (human recombinant, 20 ng/ml; both from Peprotech, Rocky Hill, N.J.)]. Spheres were passaged every 4-6 days and replated as single cells. Green fluorescent protein (GFP)-expressing neural progenitor cells (NPCs) were obtained as previously described (Pluchino et al., 2003). […]

Molecule: Aβ(1-40): aggregated amyloid protein fragment 1-40
- neurogenesis (GFP+/βIIIT+ cells) from NPCs co-cultured with treated microglia [1]: blocked neurogenesis and decreased the number of NPCs

Molecule: Aβ(1-42): aggregated amyloid protein fragment 1-42
- neurogenesis (GFP+/βIIIT+ cells) from NPCs co-cultured with treated microglia [1]: negative effect was not exhibited

Molecule: IL-4: recombinant interleukin-4
- β-III-tubulin expression in aNPCs (aNPCs): no change in β-III-tubulin expression
- neurogenesis (GFP+/βIIIT+ cells) from NPCs co-cultured with treated microglia [1]: partially counteracted the adverse effect of the aggregated Aβ

B1: rTNF-α: recombinant mouse TNF-α (protein)
chain: LRSSSQNSSDKPVAHVVANHQVEEQLEWLSQRANALLANGMDLKDNQLVVPADGLYLVYSQVLFKGQGCPDYVLLTHTVSRFAISYQEKVNLLSAVKSPCPKDTPEGAELKPWYEPIYLGGVFQLEKGDQLSAEVNLPKYLDFAESGQVYFGVIAL
- oligodendrogenesis induced by MG(IFN-γ) [2]: negative effect

— patent US20090191173A1, “Induction Of Neurogenesis And Stem Cell Therapy In Combination With Copolymer 1” (priority 2004, published 2009)
